The values that follow come from paper PMC12030497, “Plasma Protein Binding, Biostability, Metabolite Profiling, and CYP450 Phenotype of TPB15 Across Different Species: A Novel Smoothened Inhibitor for TNBC Therapy” (Pharmaceutics, 2025).

The nature of data set [1]: Stability in rat plasma. To be noted: 37 °C, 453 μg/L. The class given is in vitro ADME, SD rat. The procedure:
(§1) A total of 696.5 μL of plasma from each species (healthy mice, rat, dog, monkey, and human) were spiked with 3.5 μL of TPB15 stock solution ([…] in DMSO), resulting in a final TPB15 concentration of 453 μg/L in plasma. The mixture was then aliquoted into three tubes, each with a volume of 200 μL, maintaining a final DMSO concentration of 0.5%. After incubation in a water bath at 37 °C for 0, 30, 60, 90, and 120 min, 100 µL samples were transferred into EP tubes. Subsequently, 10 µL of internal standard working solution were added, followed by vortex mixing. Then, 500 µL of ethyl acetate were added, and the mixture was vortexed again before being centrifuged at 14,800 rpm at 4 °C for 10 min. A total of 400 µL of the supernatant were transferred into a new EP tube and placed in a vacuum concentrator (Bionoon-VAC2) (Bionoon Biotech, Shanghai, China) to dry for 1 h. The dried residue was reconstituted with 100 µL of mobile phase, vortex mixed thoroughly, and centrifuged again at 14,800 rpm at 4 °C for 10 min. A volume of 5 µL of the supernatant was then taken for LC-MS/MS analysis to determine the drug concentration. Additionally, a blank control group was established, in which PBS buffer was used in place of blank plasma in the incubation system.

A short description of data set [2]: Plasma protein binding by ultrafiltration, human plasma. The class given is in vitro ADME. The procedure: To prepare plasma samples of TPB15 at final concentrations of 4, 8, and 16 μg/mL, 1 μL of TPB15 dissolved in dimethyl sulfoxide (DMSO) at low (400 μg/mL), medium (800 μg/mL), and high (1600 μg/mL) concentrations was added to 99 μL of blank plasma obtained from humans, rats, mice, monkeys, and dogs. Each concentration was prepared in six replicates. The samples were then divided into two groups: one for determining the pre-ultrafiltration concentration (Cpre) and the other for measuring the post-ultrafiltration concentration (Ct), following the evaluation of the non-specific binding coefficient (NSB) of TPB15 to the ultrafiltration tubes. For Cpre determination, 10 μL of the sample was mixed with 990 μL of plasma, vortexed thoroughly, and analyzed for drug concentration using the previously reported liquid chromatography–tandem mass spectrometry (LC-MS/MS) method. For Ct determination, the samples were first incubated in a water bath at 37 °C for 3 h. After incubation, they were transferred to ultrafiltration tubes and centrifuged at 14,000 rpm for 20 min at 4 °C using a centrifuge (Sigma 3K-15) from Sigma Laborzentrifugen GmbH (Osterode am Harz, Germany). After centrifugation, 10 μL of the ultrafiltrate was mixed with 990 μL of plasma, vortexed, and analyzed for concentration using the same LC-MS/MS method. The formula for calculating the plasma protein binding rate (PPB) is as follows: PPB (%) = [1 − Ct/(1 − NSB)/Cpre] × 100%. (NSB: non-specific binding coefficient. […]).

For data set [3], the system named is mice. Also noted: method as in PMID 32690258. As to conditions: acute toxicity; cited from earlier work.
Data set [4] in a line: Metabolic stability in mouse liver microsomes (MouLM). The class given is in vitro ADME, KM mice. The procedure:
(§2) A total of 450 μL liver microsomes from mice, rat, dog, monkey, and human were spiked with 0.5 μL of TPB15 solution and pre-incubated in a water bath at 37 °C for 10 min. Following this, 50 μL of NADPH were added to initiate the reaction. The concentrations of each substance in the incubation system are detailed in Table 1. After initiating the metabolic reaction, 50 μL aliquots were removed at incubation times of 0, 5, 15, 30, 45, 60, and 90 min and transferred to 150 μL of icy methanol solution containing the internal standard to terminate the reaction. The mixtures were swirled for 2 min and then centrifuged at 14,800 rpm at 4 °C for 10 min. […] Three samples were prepared in parallel at each time point. Additionally, both a positive control group and a blank control group were established. In the positive control group, substrate testosterone was incubated with liver microsomes from mice, rat, dog, monkey, and human. The concentrations of substrate testosterone were measured at 0 and 90 min, and the changes in concentration before and after incubation were compared to confirm the activity of the liver microsomes. The blank control group included one drug-containing inactivated liver microsome sample for each species. The metabolic stability parameters, including in vitro elimination half-life (T1/2) and in vitro intrinsic clearance rate (CLint), were calculated based on this graph using the following formulas: in vitro elimination half-life (T1/2) = −0.693/k and in vitro intrinsic clearance rate (CLint) = (0.693 × incubation medium (mL))/(liver microsomes (mg) × T1/2).
(In general: Liver microsomes are a subcellular fraction often used to study metabolism.)

The test system of data set [5] is MDA-MB-468 xenograft. More on the design: method as in PMID 32690258. As to conditions: MDA-MB-468 xenograft nude mouse model, compared with positive control drug Vismodegib; cited from earlier work.
Data set [6] is described as follows: Stability in human plasma. The class given is in vitro ADME. To be noted: 37 °C, 453 μg/L. The procedure:
as §1

Data set [7] in a line: Metabolic stability in human liver microsomes (HLM). The class given is in vitro ADME. How it is done: as §2

For `O=C(Nc1ccc(Cl)c(-c2nnc3c(Cl)cccn23)c1)c1ccc(Cl)nc1Cl` [TPB15], the “Remaining proportion of substrate TPB15 (%) SD rat” value came to 100.0 ± 0.6% in data set [1] (incubation 0 min); 99.7 ± 1.5% in data set [1] (incubation 30 min); 97.6 ± 0.6% in data set [1] (incubation 60 min); 99.1 ± 0.3% in data set [1] (incubation 90 min); 98.0 ± 0.6% in data set [1] (incubation 120 min). The fraction unbound at 3 h in data set [2] (human plasma, 4 to 16 μg/mL, read-out: average plasma protein binding rates, range over concentrations) lay within 0.179 to 0.185. This compound showed a fraction unbound at 3 h, 4 μg/mL in data set [2] (human, plasma, 4 μg/mL TPB15, ultrafiltration, 37 °C 3 h) of 0.185. The compound also gave a fraction unbound at 3 h, 8 μg/mL in data set [2] (human, plasma, 8 μg/mL TPB15, ultrafiltration, 37 °C 3 h) of 0.183. The same compound showed a fraction unbound at 3 h, 16 μg/mL in data set [2] (human, plasma, 16 μg/mL TPB15, ultrafiltration, 37 °C 3 h) of 0.179. In data set [3], the “lethal dose for 50% of the population (LD50)” value was 3875.35 mg/kg. Besides, the “remaining proportion of TPB15 in liver microsomes” value in data set [4] (KM mice microsomes, 90 min, 5 μM TPB15, 0.5 mg/mL, NADPH 1 mM) is given as 80.0 ± 5.93%; in data set [7] (human microsomes, 90 min, 5 μM TPB15, 0.5 mg/mL, NADPH 1 mM), 55.0 ± 2.81%. For the same compound, the microsomal CLint at 5 μM in data set [4] (KM, mouse, liver microsomes, MouLM, 5 μM TPB15, 0.5 mg/mL microsomes, read-out: CLint (mL/min/mg), in vitro intrinsic clearance rate) is 0.0273 mL/min/mg; in data set [7] (human, liver microsomes, HLM, 5 μM TPB15, 0.5 mg/mL microsomes, read-out: CLint (mL/min/mg), in vitro intrinsic clearance rate), 0.0805 mL/min/mg. For the same compound, the tumor inhibitory effect result in data set [5] was “robust tumor inhibitory effect, surpassing that of the positive control drug Vismodegib”. The “Remaining proportion of substrate TPB15 (%) Human” value in data set [6] (incubation 0 min) was determined as 100.0 ± 1.0%; in data set [6] (incubation 30 min), 97.3 ± 1.5%; in data set [6] (incubation 60 min), 97.7 ± 0.6%; in data set [6] (incubation 90 min) it was 98.0 ± 1.0%; in data set [6] (incubation 120 min), 97.2 ± 1.1%. In addition, the half-life at 5 μM in data set [7] (human, liver microsomes, HLM, 5 μM TPB15, 0.5 mg/mL microsomes, read-out: T1/2 (min), in vitro elimination half-life) is 103 min.
